Measured values reported in publication PMC8580050, “Improvement of the antimicrobial potency, pharmacokinetic and pharmacodynamic properties of albicidin by incorporation of nitrogen atoms” (Chemical Science, 2021).
≈ marks a conversion by molar mass, not a printed value. Read-outs that look alike come from different tables or passages of the source.

Legend:
M. luteus DSM1790 = experiment: MIC determination (broth microdilution); format: cell-based, Micrococcus luteus; conditions: Micrococcus luteus; M. luteus DSM1790; read-out: MIC
Experimental: (§1) 1.1.1 In vitro experiments
(§2) Determination of Minimal inhibitory concentrations (MIC)
(§3) Approved Standard M07-A9.1
(§4) CFU mL-1. […] Albicidin and […]
(§5) and serially diluted in DMSO (100%). […]
(§6) in 0.1 N HCL, respectively.
(§7) One row of each well plate served as a […]
(§8) sterility control (only MHB II-media). […]
(§9) adding 5 µL DMSO to several wells. […]
(§10) for growth inhibition by naked eye.
(§11) Microorganisms and Cell Cultures (DSMZ): […]

E. coli DNA gyrase = target: T1, E. coli DNA gyrase (Escherichia coli, UniProt P0AES4+P0AES6); experiment: E. coli gyrase supercoiling inhibition assay; format: biochemical; set-up: key: ↑: for stronger inhibition; ≈: for equal inhibition; ↓: for diminished inhibition compared to albicidin 1; conditions: constant concentration of 45 nM, compared to albicidin 1
T1 construct: purchased inspiralis Limited, Norwich, UK
Experimental: Escherichia coli Gyrase Supercoiling Inhibition Assay
loaded on an agarose gel.
2-15. […] Addition of DNA
All derivatives were tested at a concentration of […]

[1] = system: E. coli DSM 1116 + 50% Human Serum; experiment: MIC determination in presence of 50% human serum; format: cell-based; conditions: Escherichia coli, DSM1116; E. coli DSM 1116 + 50% Human Serum; read-out: MIC
From the text: This investigation was completed by assessment of the antibacterial activity in presence of human plasma (50%) (Table 1), since high plasma protein binding can severely impair antibacterial activity and thus efficacy.
as §1, §2, §3, §4, §5, §6, §7, §8, §9, §10, §11

S. Typhimurium TA100 = experiment: MIC determination (broth microdilution); format: cell-based, Salmonella typhimurium; conditions: Salmonella enterica; S. Typhimurium TA100; read-out: MIC
Experimental: as §1, §2, §3, §4, §5, §6, §7, §8, §9, §10, §11

B. subtilis DSM 10 = experiment: MIC determination (broth microdilution); format: cell-based; conditions: Bacillus subtilis, DSM10; B. subtilis DSM 10; read-out: MIC
Experimental: as §1, §2, §3, §4, §5, §6, §7, §8, §9, §10, §11

E. coli BW25113 = experiment: MIC determination (broth microdilution); format: cell-based; conditions: Escherichia coli
Experimental: as §1, §2, §3, §4, §5, §6, §7, §8, §9, §10, §11

E. coli DSM 1116 = experiment: MIC determination (broth microdilution); format: cell-based, Escherichia coli; conditions: Escherichia coli, DSM1116
Experimental: as §1, §2, §3, §4, §5, §6, §7, §8, §9, §10, §11

M. phlei DSM 750 = experiment: MIC determination (broth microdilution); format: cell-based, Mycobacterium phlei; conditions: Mycolicibacterium phlei, DSM750; M. phlei DSM 750; read-out: MIC
Experimental: as §1, §2, §3, §4, §5, §6, §7, §8, §9, §10

Gram-negative strains = experiment: MIC, primary panel; format: cell-based; conditions: Salmonella enterica, TYPHIMURIUM
Experimental: as §1, §2, §3, §4, §5, §6, §7, §8, §9, §10
(§12) Microorganisms and Cell Cultures (DSMZ):
Mycobacterium phlei DSM 750
Salmonella typhimurium TA100 was kindly provided by Prof. Dr. Vera Meyer (Technische Universität […]
Brötz-Oesterheldt (Tübingen, Germany)/ Prof. Dr. Heisig (Hamburg, Germany)2 Escherichia coli WT (GK571)
Escherichia coli WT-3-1 (GK796) [gyrA (S83L, D87G)]
Escherichia coli MI (GK572) [gyrA (S83L)] […]
or by Prof. Dr. Werner (Robert-Koch-Institut, Wernigerode, Germany): […]

Gram-positive strains = experiment: MIC, primary panel; format: cell-based
Experimental: as §1, §2, §3, §4, §5, §6, §7, §8, §9, §10, §12
Mycobacterium phlei DSM 750 […]
Dr. Werner (Robert-Koch-Institut, Wernigerode, Germany): […]

[2] = Cell proliferation assay (HepG2 cells); conditions: human
Experimental: (§13) Cell proliferation assay (HepG2 cells)
(§14) The assay was performed by the company Eurofins (Taiwan). Cytotoxicity was representatively
(§15) according to a protocol by Ansar et al.27 This is in line with previously published cytotoxicity data on
(§16) GI = growth inhibition; TGI = total growth inhibition; LC = lethal concentration

HepG2 cells = experiment: Cell proliferation assay (HepG2 cells); conditions: HepG2 cells
Experimental: as §13, §14, §15, §16

DNA gyrase = conditions: read-out: half maximum inhibitory concentration (IC50); cited from earlier work
[3] = E. coli DSM 1116, read-out: MIC

Row | Compound | MIC (M. luteus DSM1790) | E. coli gyrase inhibition (E. coli DNA gyrase) | MIC [1] | MIC (S. Typhimurium TA100) | MIC (B. subtilis DSM 10) | MIC (E. coli BW25113) | MIC (E. coli DSM 1116; [3]) | MIC (M. phlei DSM 750) | MIC (Gram-negative strains) | MIC (Gram-positive strains) | MIC (E. coli DSM 1116) | CC50 [2] | GI50 [2] | TGI (total growth inhibition) (HepG2 cells) | IC50 (DNA gyrase)
1 | COc1c(NC(=O)c2ccc(NC(=O)c3ccc(NC(=O)[C@H](Cc4c[nH]nn4)NC(=O)c4ccc(NC(=O)/C(C)=C/c5ccc(O)cc5)cc4)cc3)cc2)ccc(C(=O)O)c1O [Compound 11, reference compound] | 8 µg/mL (≈ 9.54 µM) | ≈ | 4 µg/mL | 0.063 µg/mL (≈ 0.0751 µM) | 4 µg/mL (≈ 4.77 µM) | 0.031 µg/mL (≈ 0.037 µM) | 0.063 µg/mL (≈ 0.0751 µM) | 4 µg/mL (≈ 4.77 µM) | – | – | – | – | – | – | –
2 | COc1c(NC(=O)c2ccc(NC(=O)[C@H](Cc3c[nH]nn3)NC(=O)c3ccc(NC(=O)/C(C)=C/c4ccc(O)cc4)cc3)cc2)ccc(C(=O)Nc2ccc(C(=O)O)nc2)c1O [Compound 12] | 32 µg/mL (≈ 38.1 µM) | ↓ | ≥ 8 µg/mL | 0.125 µg/mL (≈ 0.149 µM) | ≥ 128 µg/mL | ≥ 128 µg/mL | 64 µg/mL (≈ 76.2 µM) | 32 µg/mL (≈ 38.1 µM) | > 32 µg/mL | > 32 µg/mL | – | – | – | – | –
3 | COc1c(NC(=O)c2ccc(NC(=O)[C@H](Cc3c[nH]nn3)NC(=O)c3ccc(NC(=O)/C(C)=C/c4ccc(O)cc4)cc3)cc2)ccc(C(=O)Nc2ccc(C(=O)O)cn2)c1O [Compound 13] | 4 µg/mL (≈ 4.76 µM) | ≈ | 8 µg/mL | 0.016 µg/mL (≈ 0.0191 µM) | 4 µg/mL (≈ 4.76 µM) | 0.125 µg/mL (≈ 0.149 µM) | – | 4 µg/mL (≈ 4.76 µM) | 0.125 µg/mL (≈ 0.149 µM) | 4 µg/mL (≈ 4.76 µM) | 0.125 µg/mL (≈ 0.149 µM) | – | – | – | –
4 | COc1c(NC(=O)c2ccc(NC(=O)[C@H](Cc3c[nH]nn3)NC(=O)c3ccc(NC(=O)/C(C)=C/c4ccc(O)cc4)cc3)cc2)ccc(C(=O)Nc2ccc(C(=O)O)cc2)c1O [Compound 14, reference compound] | 2 µg/mL (≈ 2.38 µM) | ≈ | 8 µg/mL | 0.016 µg/mL (≈ 0.0191 µM) | 0.5 µg/mL (≈ 0.596 µM) | 0.125 µg/mL (≈ 0.149 µM) | 0.25 µg/mL (≈ 0.298 µM) | 1 µg/mL (≈ 1.19 µM) | – | – | – | – | – | – | –
5 | COc1c(NC(=O)c2ccc(NC(=O)[C@H](Cc3c[nH]nn3)NC(=O)c3ccc(NC(=O)/C(C)=C/c4ccc(O)cc4)cc3)cc2)ccc(C(=O)Nc2ccccc2)c1O [Compound 15] | 1 µg/mL (≈ 1.26 µM) | ≈ | ≥ 8 µg/mL | 1 µg/mL (≈ 1.26 µM) | 2 µg/mL (≈ 2.52 µM) | 0.5 µg/mL (≈ 0.629 µM) | 1 µg/mL (≈ 1.26 µM) | 2 µg/mL (≈ 2.52 µM) | – | – | – | – | – | – | –
6 | CN[C@@H]1C[C@H]2O[C@@](C)([C@@H]1OC)n1c3ccccc3c3c4c(c5c6ccccc6n2c5c31)C(=O)NC4 [Staurosporine, reference compound] | – | – | – | – | – | – | – | – | – | – | – | 5.81 µM | 5.23 nM | < 0.14 µM | –
7 | cystobactamid | – | – | – | – | – | – | – | – | – | – | – | – | – | – | 80 nM
